Assay results reported in ChEMBL document CHEMBL1201862, “PubChem BioAssay data set” (2004).
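These data come from cells grown in 96-well plates and exposed to compound for 48 hours at five concentrations. GI50 = concentration required for 50% inhibition of growth.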 Active and inactive are the calls of the source. Cut-off read from the data, not from the text of the source: active = GI50 up to about 1.1 µM and inactive = higher.

How the values were obtained:
Experiment in all cases: NCI anticancer screen, dose series, 48 h
A549 = system: A549
ACHN = system: ACHN
CCRF-CEM = system: CCRF-CEM
COLO 205 = system: COLO 205
HCC 2998 = system: HCC 2998
HCT-116 = system: HCT-116
HOP-62 = system: HOP-62
HT-29 = system: HT-29
KM12 = system: KM12
NCI-H522 = system: NCI-H522
NCI/ADR-RES = system: NCI/ADR-RES
OVCAR-3 = system: OVCAR-3
OVCAR-4 = system: OVCAR-4
OVCAR-8 = system: OVCAR-8
SF-295 = system: SF-295
SNB-19 = system: SNB-19
SNB-75 = system: SNB-75
T47D = system: T47D
TK-10 = system: TK-10
BT-549 = system: BT-549

COc1cc(OC)c(NC2=NCCO2)cc1Cl
GI50 (A549): 46.3 µM (inactive)
GI50 (ACHN): 64.7 µM (inactive)
GI50 (CCRF-CEM): 54 µM (inactive)
GI50 (COLO 205): 18.8 µM (inactive)
GI50 (HCC 2998): 23.8 µM (inactive)
GI50 (HCT-116): 34.4 µM (inactive)
GI50 (HOP-62): 49.7 µM (inactive)
GI50 (HT-29): 23.5 µM (inactive)
GI50 (KM12): 16.7 µM (inactive)
GI50 (NCI-H522): 32.8 µM (inactive)
GI50 (NCI/ADR-RES): 32.4 µM (inactive)
GI50 (OVCAR-3): 43.6 µM (inactive)
GI50 (OVCAR-4): > 100 µM (inactive)
GI50 (OVCAR-8): 83 µM (inactive)
GI50 (SF-295): 82.8 µM (inactive)
GI50 (SNB-19): > 100 µM (inactive)
GI50 (SNB-75): 35.6 µM (inactive)
GI50 (T47D): 54.5 µM (inactive)
GI50 (TK-10): 60.3 µM (inactive)

COc1ccc2c(c1)OCc1c-2oc2ccccc2c1=O
GI50 (A549): > 100 µM (inactive)
GI50 (ACHN): 61.1 µM (inactive)
GI50 (BT-549): > 100 µM (inactive)
GI50 (CCRF-CEM): > 100 µM (inactive)
GI50 (COLO 205): > 100 µM (inactive)
GI50 (HCC 2998): > 100 µM (inactive)
GI50 (HCT-116): > 100 µM (inactive)
GI50 (HOP-62): 53.7 µM (inactive)
GI50 (HT-29): > 100 µM (inactive)
GI50 (KM12): > 100 µM (inactive)
GI50 (NCI-H522): > 100 µM (inactive)
GI50 (NCI/ADR-RES): > 100 µM (inactive)
GI50 (OVCAR-3): > 100 µM (inactive)
GI50 (OVCAR-8): > 100 µM (inactive)
GI50 (SF-295): 52.7 µM (inactive)
GI50 (SNB-75): 34.5 µM (inactive)
GI50 (TK-10): > 100 µM (inactive)

Cn1c(/C=C/CO)c(CO)c2c1C(=O)C=C(N1CC1)C2=O [APAZIQUONE]
GI50 (A549): < 0.01 µM (active)
GI50 (CCRF-CEM): 0.184 µM (active)
GI50 (COLO 205): < 0.0122 µM (active)
GI50 (HCC 2998): < 0.01 µM (active)
GI50 (HCT-116): 0.0109 µM (active)
GI50 (HOP-62): < 0.01 µM (active)
GI50 (HT-29): < 0.01 µM (active)
GI50 (KM12): < 0.01 µM (active)
GI50 (NCI-H522): 0.0102 µM (active)
GI50 (NCI/ADR-RES): < 0.01 µM (active)
GI50 (OVCAR-3): 0.0206 µM (active)
GI50 (OVCAR-4): 0.0516 µM (active)
GI50 (OVCAR-8): < 0.0156 µM (active)
GI50 (SF-295): < 0.01 µM (active)
GI50 (SNB-19): < 0.01 µM (active)
GI50 (SNB-75): < 0.01 µM (active)

CC(=O)OCc1cc(=O)n(C)c2c3c4c(cc12)c(C)cc(=O)n4CO3
GI50 (A549): 1.69 µM (inactive)
GI50 (CCRF-CEM): 0.853 µM (active)
GI50 (COLO 205): 1.23 µM (inactive)
GI50 (HCC 2998): 1.52 µM (inactive)
GI50 (HCT-116): 0.367 µM (active)
GI50 (HOP-62): 1.2 µM (inactive)
GI50 (HT-29): 1.49 µM (inactive)
GI50 (KM12): 1.23 µM (inactive)
GI50 (NCI-H522): 0.711 µM (active)
GI50 (NCI/ADR-RES): 1 µM (active)
GI50 (OVCAR-3): 1.45 µM (inactive)
GI50 (OVCAR-4): 1.42 µM (inactive)
GI50 (OVCAR-8): 0.555 µM (active)
GI50 (SF-295): 1.57 µM (inactive)
GI50 (SNB-19): 1.61 µM (inactive)
GI50 (SNB-75): 1.91 µM (inactive)

CC(/C=C/C=C/C=C/C=C/C=C/C(=O)C1=C(O)C(CCC(=O)O)N(C)C1=O)=C\C(C)C(OC1CC(O)C(O)C(C)O1)C(C)C (configuration not stated)
GI50 (A549): 3.19 µM (inactive)
GI50 (ACHN): 3.13 µM (inactive)
GI50 (BT-549): 2.11 µM (inactive)
GI50 (CCRF-CEM): 3.26 µM (inactive)
GI50 (COLO 205): 2.18 µM (inactive)
GI50 (HCC 2998): 2.15 µM (inactive)
GI50 (HCT-116): 2.82 µM (inactive)
GI50 (HOP-62): 1.87 µM (inactive)
GI50 (HT-29): 3.02 µM (inactive)
GI50 (KM12): 1.88 µM (inactive)
GI50 (NCI-H522): 2.91 µM (inactive)
GI50 (NCI/ADR-RES): 13 µM (inactive)
GI50 (OVCAR-3): 1.98 µM (inactive)
GI50 (OVCAR-4): 5.75 µM (inactive)
GI50 (OVCAR-8): 3.74 µM (inactive)
GI50 (SF-295): 3.8 µM (inactive)
GI50 (SNB-19): 2.81 µM (inactive)
GI50 (SNB-75): 3.89 µM (inactive)
GI50 (TK-10): 2.49 µM (inactive)

CCCCCCCCCCCCCCCCNc1ccn(C2CC(OP(=O)(O)OCC3OC(n4cc(CC)c(=O)[nH]c4=O)CC3O)C(CO)O2)c(=O)n1 (configuration not stated)
GI50 (A549): 22 µM (inactive)
GI50 (ACHN): 42.8 µM (inactive)
GI50 (COLO 205): 26 µM (inactive)
GI50 (HCC 2998): 24.5 µM (inactive)
GI50 (HCT-116): 50.1 µM (inactive)
GI50 (HOP-62): 23.4 µM (inactive)
GI50 (HT-29): 21.6 µM (inactive)
GI50 (KM12): 15.7 µM (inactive)
GI50 (NCI-H522): 36.4 µM (inactive)
GI50 (NCI/ADR-RES): 27.9 µM (inactive)
GI50 (OVCAR-3): 38.3 µM (inactive)
GI50 (OVCAR-4): > 100 µM (inactive)
GI50 (OVCAR-8): 20 µM (inactive)
GI50 (SF-295): 18.7 µM (inactive)
GI50 (SNB-19): 16 µM (inactive)
GI50 (SNB-75): 23.3 µM (inactive)
GI50 (T47D): 44.2 µM (inactive)
GI50 (TK-10): 77.3 µM (inactive)

NCCCNCCSP(=O)(O)O [AMIFOSTINE]
GI50 (A549): > 519 µM (inactive)
GI50 (CCRF-CEM): 512 µM (inactive)
GI50 (COLO 205): 385 µM (inactive)
GI50 (HCC 2998): > 733 µM (inactive)
GI50 (HCT-116): 743 µM (inactive)
GI50 (HOP-62): > 321 µM (inactive)
GI50 (HT-29): > 750 µM (inactive)
GI50 (KM12): 543 µM (inactive)
GI50 (NCI-H522): 389 µM (inactive)
GI50 (NCI/ADR-RES): > 750 µM (inactive)
GI50 (OVCAR-3): > 750 µM (inactive)
GI50 (OVCAR-4): > 635 µM (inactive)
GI50 (OVCAR-8): > 511 µM (inactive)
GI50 (SF-295): > 750 µM (inactive)
GI50 (SNB-19): > 750 µM (inactive)
GI50 (SNB-75): > 750 µM (inactive)

O=c1ccn(Cc2ccccc2CCl)c(=O)[nH]1
GI50 (A549): 47.8 µM (inactive)
GI50 (ACHN): 26.9 µM (inactive)
GI50 (CCRF-CEM): 30.7 µM (inactive)
GI50 (COLO 205): 27.2 µM (inactive)
GI50 (HCC 2998): 22.7 µM (inactive)
GI50 (HCT-116): 21.7 µM (inactive)
GI50 (HOP-62): 25.7 µM (inactive)
GI50 (HT-29): 24.2 µM (inactive)
GI50 (KM12): 26.5 µM (inactive)
GI50 (NCI-H522): 20.4 µM (inactive)
GI50 (NCI/ADR-RES): 22.1 µM (inactive)
GI50 (OVCAR-3): 22.3 µM (inactive)
GI50 (OVCAR-4): 69.7 µM (inactive)
GI50 (OVCAR-8): 25.9 µM (inactive)
GI50 (SF-295): 23.3 µM (inactive)
GI50 (SNB-19): 33.3 µM (inactive)
GI50 (SNB-75): 45.2 µM (inactive)
GI50 (T47D): 43.9 µM (inactive)
GI50 (TK-10): 39.1 µM (inactive)

Cn1c(Nc2ccccc2)c(/C=N\c2ccccc2)c(=O)n(C)c1=O
GI50 (A549): > 100 µM (inactive)
GI50 (BT-549): > 100 µM (inactive)
GI50 (CCRF-CEM): > 100 µM (inactive)
GI50 (HCT-116): 48.2 µM (inactive)
GI50 (HOP-62): 22.5 µM (inactive)
GI50 (HT-29): 47.9 µM (inactive)
GI50 (KM12): 97.7 µM (inactive)
GI50 (NCI/ADR-RES): 41 µM (inactive)
GI50 (OVCAR-3): > 100 µM (inactive)
GI50 (OVCAR-4): > 100 µM (inactive)
GI50 (OVCAR-8): 39.7 µM (inactive)
GI50 (SF-295): 89.5 µM (inactive)
GI50 (TK-10): > 100 µM (inactive)

O=C1C(=O)C(CCCO)(CCCO)CCCCCCCCC1(CCCO)CCCO
GI50 (A549): 45.8 µM (inactive)
GI50 (ACHN): > 100 µM (inactive)
GI50 (COLO 205): > 100 µM (inactive)
GI50 (HCC 2998): > 100 µM (inactive)
GI50 (HCT-116): 32 µM (inactive)
GI50 (HOP-62): > 100 µM (inactive)
GI50 (HT-29): 67 µM (inactive)
GI50 (KM12): 78.5 µM (inactive)
GI50 (NCI-H522): 48.4 µM (inactive)
GI50 (NCI/ADR-RES): > 100 µM (inactive)
GI50 (OVCAR-3): 32.2 µM (inactive)
GI50 (OVCAR-4): > 100 µM (inactive)
GI50 (OVCAR-8): > 100 µM (inactive)
GI50 (SF-295): > 100 µM (inactive)
GI50 (SNB-19): 61.5 µM (inactive)
GI50 (SNB-75): 50.1 µM (inactive)
GI50 (T47D): 87.7 µM (inactive)
GI50 (TK-10): 87.3 µM (inactive)

C=C1CCC([N+](=O)[O-])[C@](C)(N=O)CC[C@@H]2C1CC2(C)C (some centres not stated)
GI50 (A549): 18.5 µM (inactive)
GI50 (ACHN): 37 µM (inactive)
GI50 (BT-549): 14.4 µM (inactive)
GI50 (CCRF-CEM): 6.62 µM (inactive)
GI50 (COLO 205): 28.1 µM (inactive)
GI50 (HCT-116): 14.8 µM (inactive)
GI50 (HOP-62): 38.3 µM (inactive)
GI50 (HT-29): 19.9 µM (inactive)
GI50 (KM12): 24.5 µM (inactive)
GI50 (NCI-H522): 19.4 µM (inactive)
GI50 (NCI/ADR-RES): 22.8 µM (inactive)
GI50 (OVCAR-3): 23.6 µM (inactive)
GI50 (OVCAR-4): 24.7 µM (inactive)
GI50 (OVCAR-8): 22.3 µM (inactive)
GI50 (SF-295): 17.9 µM (inactive)
GI50 (SNB-19): 27.3 µM (inactive)
GI50 (SNB-75): 18.9 µM (inactive)
GI50 (TK-10): 28.6 µM (inactive)

CN(C)c1ccc(C(N)=O)cn1
GI50 (A549): > 100 µM (inactive)
GI50 (ACHN): > 100 µM (inactive)
GI50 (BT-549): > 100 µM (inactive)
GI50 (CCRF-CEM): > 100 µM (inactive)
GI50 (COLO 205): > 100 µM (inactive)
GI50 (HCC 2998): > 100 µM (inactive)
GI50 (HCT-116): > 100 µM (inactive)
GI50 (HOP-62): > 100 µM (inactive)
GI50 (HT-29): > 100 µM (inactive)
GI50 (KM12): > 100 µM (inactive)
GI50 (NCI-H522): > 100 µM (inactive)
GI50 (NCI/ADR-RES): > 100 µM (inactive)
GI50 (OVCAR-3): > 100 µM (inactive)
GI50 (OVCAR-8): > 100 µM (inactive)
GI50 (SF-295): > 100 µM (inactive)
GI50 (SNB-19): > 100 µM (inactive)
GI50 (SNB-75): > 100 µM (inactive)
GI50 (TK-10): > 100 µM (inactive)
